Non-standard residues stand in square brackets, D forms with d. Residues, ends and D or L forms follow the SMILES beside them. ξ: configuration not given here. *: point of attachment. X3 = C[C@H](N*)C(=O)NS(C)(=O)=O; X4 = C[C@H](N*)C(=O)c1nccs1; boroAla = C[C@H](N*)B(O)O; ξA = CC(N)C(=O)O; CF3 = FC(F)(F)*; CH2Cl = ClC*
Target: T1, Escherichia coli rhomboid GlpG (Escherichia coli, UniProt P09391)
T1 construct: made in house; host or cells: E. coli C41(DE3)
Test: in vitro GlpG inhibition assay with fluorogenic transmembrane peptide substrate (apparent IC50)
Format: biochemical
Details: for IC50: 1 hr preincubation, 10 μM fluorogenic substrate KSp35, 0.05% (w/v) DDM; for fold decrease in potency compared with the parent compound 9: N-terminal truncation series
Excerpt: To gain insight into these preferences and their possible interactions, we have generated tetra- and pentapeptidyl chloromethylketones (CMK or cmk henceforth) harboring amino acids preferred in positions P5 to P1 by the Escherichia coli rhomboid GlpG (GlpG henceforth), using the sequence background of the Providencia TatA ([Stevenson et al., 2007]), represented by the parent compound Ac-IATA-cmk. We measured the inhibitory properties of this series of compounds using a newly developed in vitro assay employing a fluorogenic transmembrane peptide substrate ([Ticha et al., 2017]) that faithfully represents a native rhomboid substrate.
Figure 1 The Potency of Substrate-Derived Inhibitors Can be Improved by Modifying the Amino acid Sequence of the P5 to P1 Region (A) The parent inhibitor Ac-IATA-cmk was modified by introducing strongly preferred amino acids ([Zoll et al., 2014]) into the P4, P3, P2, and P5 positions to yield the listed compounds. Their apparent IC50 values were measured with 1 hr preincubation using 10 μM fluorogenic substrate KSp35 and 0.05% (w/v) DDM. The reported values are best-fit means with SD representative of 2–3 measurements. (B) The sequence-optimized peptidyl chloromethylketones were soaked into the native crystals of GlpG and structures of the complexes were solved by X-ray diffraction (for statistics, see Table S1). […] Note that in the Ac-RVRHA-cmk structure (right), the side chain of the Arg residue in the P5 position of the inhibitor has not been modeled due to poor or missing electron density peaks. (C) Interactions of RVRHA-cmk with GlpG were analyzed by Ligplot+ ([Laskowski and Swindells, 2011]). Ligands are shown as thick sticks with carbons in green, proteins as thin sticks with carbons in gray, hydrogen bonds as yellow dashed lines, and amino acids involved in van der Waals contacts are highlighted as transparent surfaces. The inhibitor forms covalent bonds with S201 and H254 via the chloromethylketone warhead, and it hydrogen bonds with the backbone of residues 196–198 from the L3 loop and residues 248–250 from the L5 loop. van der Waals contacts with the inhibitor are formed by the residues from the L3 loop of GlpG, by S193 and Q189 from TMD3, and by F146 and M120 from the L1 loop that pack against the Val side chain of the P4 position of the inhibitor, as observed previously ([Zoll et al., 2014]). (D) The conformations of peptide inhibitors bound to the active site of GlpG were compared by performing structural alignment of the complexes of VRHAcmk (PDB: 5MT7), RVRHAcmk (PDB: 5MT8), IATAcmk (PDB: 4QO2), and VRMAcho (PDB: 5F5B) in PyMOL ([Schrodinger, 2012]). […] The backbone of the ligands in all complexes has virtually identical conformation with the exception of the distortion of the oxyanion by the chloromethylketone, and the biggest differences are found in the conformation of the P2 side chain, which is not surprising, because almost any side chain can be accommodated in this position ([Zoll et al., 2014]). TEXT PRINTED IN THE PICTURE: (A) AcIATAcmk: IC50 (μM): 213 | (A) AcVATAcmk: IC50 (μM): 450 | (A) AcIAHAcmk: IC50 (μM): 200 | (A) AcIRTAcmk: IC50 (μM): 84 | (A) AcVRHAcmk: IC50 (μM): 27 | (A) AcRVRHAcmk: IC50 (μM): 8
Figure 2 A Screen of Electrophilic Warheads for the Inhibition of Rhomboid Proteases The optimized parent sequence Ac-RVRHA was linked to electrophilic warheads commonly used for targeting serine proteases (reviewed in [Hedstrom, 2002], [Walker and Lynas, 2001]). The apparent IC50 values of the compounds were measured in 0.05% DDM using 10 μM substrate KSp35 ([Ticha et al., 2017]) with 1 hr preincubation. Given are the mean values of 2–3 measurements. […]

T1 sequence (P09391 whole entry): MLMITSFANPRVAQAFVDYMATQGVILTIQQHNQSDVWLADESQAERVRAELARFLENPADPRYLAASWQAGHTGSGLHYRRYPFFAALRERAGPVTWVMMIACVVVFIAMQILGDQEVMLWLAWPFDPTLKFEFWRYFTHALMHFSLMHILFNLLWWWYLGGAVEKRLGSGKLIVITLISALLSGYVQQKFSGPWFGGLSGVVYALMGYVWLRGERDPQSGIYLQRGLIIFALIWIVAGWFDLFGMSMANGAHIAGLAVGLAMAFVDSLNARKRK

Compound | IC50 [µM] | fold less potent than the peptidyl boronate (ratio of apparent IC50 values) | fold decrease in potency compared with the parent compound 9 (ratio of apparent IC50 values)
CC(=O)N[C@H](C(=O)N[C@@H](CCCNC(=N)N)C(=O)N[C@@H](Cc1c[nH]cn1)C(=O)N[C@@H](C)C(=O)C(=O)NCCc1ccccc1)C(C)C [compound 12] | 0.55 | – | –
CC[C@H](C)[C@H](NC(C)=O)C(=O)N[C@@H](C)C(=O)N[C@@H](Cc1c[nH]cn1)C(=O)N[C@@H](C)C(=O)CCl [AcIAHAcmk] (Ac-IAHA-CH2Cl) | 200 | – | –
CC[C@H](C)[C@H](NC(C)=O)C(=O)N[C@@H](CCCNC(=N)N)C(=O)N[C@H](C(=O)N[C@@H](C)C(=O)CCl)[C@@H](C)O [AcIRTAcmk] (Ac-IRTA-CH2Cl) | 84 | – | –
CC(=O)N[C@H](C(=O)N[C@@H](C)C(=O)N[C@H](C(=O)N[C@@H](C)C(=O)CCl)[C@@H](C)O)C(C)C [AcVATAcmk] (Ac-VATA-CH2Cl) | 450 | – | –
Ac-RVRHA-NH2 [compound 1, AcRVRHA-CONH2] | 203 | about 25 fold | –
CC(=O)N[C@@H](CCCNC(=N)N)C(=O)N[C@@H](Cc1c[nH]cn1)C(=O)N[C@@H](C)C(=O)C(=O)NCCc1ccccc1 [compound 13, Ac-RHA-CONH-phenylethyl] | 9 | – | ~20 fold
CC(=O)N[C@@H](CCCNC(=N)N)C(=O)N[C@H](C(=O)N[C@@H](CCCNC(=N)N)C(=O)N[C@@H](Cc1c[nH]cn1)C(=O)N[C@@H](C)C(=O)c1nccs1)C(C)C [thiazolylketone, AcRVRHA-thiazolylketone] (Ac-RVRH-X4) | > 1000 | – | –
CC(=O)N[C@@H](CCCNC(=N)N)C(=O)N[C@H](C(=O)N[C@@H](CCCNC(=N)N)C(=O)N[C@@H](Cc1c[nH]cn1)C(=O)N[C@@H](C)C(=O)NS(C)(=O)=O)C(C)C [acylsulfonamide, AcRVRHA-acylsulfonamide] (Ac-RVRH-X3) | > 1000 | – | –
CC[C@H](C)[C@H](NC(C)=O)C(=O)N[C@@H](C)C(=O)N[C@H](C(=O)N[C@@H](C)C(=O)CCl)[C@@H](C)O [AcIATAcmk, reference compound] (Ac-IATA-CH2Cl) | 213 | – | –
CC(=O)N[C@@H](Cc1c[nH]cn1)C(=O)N[C@@H](C)C(=O)C(=O)NCCc1ccccc1 [compound 14] | ~65 | – | ~150 fold
CC(=O)N[C@@H](CCCNC(=N)N)C(=O)N[C@H](C(=O)N[C@@H](CCCNC(=N)N)C(=O)N[C@@H](Cc1c[nH]cn1)C(=O)N[C@@H](C)B(O)O)C(C)C [boronate, AcRVRHA-boronate] (Ac-RVRH-boroAla) | 8 | – | –
CC(=O)N[C@@H](CCCNC(=N)N)C(=O)N[C@H](C(=O)N[C@@H](CCCNC(=N)N)C(=O)N[C@@H](Cc1c[nH]cn1)C(=O)N[C@@H](C)C(=O)CCl)C(C)C [AcRVRHAcmk] (Ac-RVRHA-CH2Cl) | 8 | – | –
CC(=O)N[C@@H](C)C(=O)C(=O)NCCc1ccccc1 [compound 15, Ac-A-CONH-phenylethyl] | > 1000 | – | ~2,250 fold
CC(=O)N[C@H](C(=O)N[C@@H](CCCNC(=N)N)C(=O)N[C@@H](Cc1c[nH]cn1)C(=O)N[C@@H](C)C(=O)CCl)C(C)C [AcVRHAcmk] (Ac-VRHA-CH2Cl) | 27 | – | –
CC(=O)N[C@@H](CCCNC(=N)N)C(=O)N[C@H](C(=O)N[C@@H](CCCNC(=N)N)C(=O)N[C@@H](Cc1c[nH]cn1)C(=O)NC(C)C(=O)C(F)(F)F)C(C)C (stereo partly shown) [trifluoromethylketone, AcRVRHA-trifluoromethylketone] (Ac-RVRH[ξA]-CF3) | > 1000 | – | –
